Counter-ions that a name gives are not always drawn.
tested on: IL-2 production; test: Inhibition of IL-2 production in PHA-activated Jurkat cells (ELISA); format: cell-based, human; conditions: Homo sapiens, Jurkat, 20 h, Jurkat cells, PHA 2.5 μg/mL, 20 hours, IL-2 ELISA; read-out: IC50 (inhibition of IL-2 production)
Description: Jurkat cells were placed in a 96 well plate (0.5 million cells per well in 1% FBS medium) then a test compound of this invention was added at different concentrations. After 10 minutes, the cells were activated with PHA (final concentration 2.5 μg/mL) and incubated for 20 hours at 37° C. under CO2. The final volume was 200 μL. Following incubation, the cells were centrifuged and the supernatants collected and stored at −70° C. prior to assaying for IL-2 production. A commercial ELISA kit (IL-2 Eli-pair, Diaclone Research, Besancon, France) was used to detect production of IL-2, from which dose response curves were obtained. The IC50 value was calculated as the concentration at which 50% of maximum IL-2 production after stimulation was inhibited versus a non-stimulation control.

Row | Structure (SMILES) | IC50 [nM]
1 | Cc1ccc(-c2ncco2)cc1-c1ccc(NC(=O)c2ccncc2F)cc1 [Compound 10, 3-Fluoro-N-(2′-methyl-5′-oxazol-2-yl-biphenyl-4-yl)-isonicotinamide] | 3
2 | Cc1ccc(-c2ncco2)cc1-c1ccc(NC(=O)c2c(F)cncc2F)cc1 [Compound 11, 3,5-Difluoro-N-(2′-methyl-5′-oxazol-2-yl-biphenyl-4-yl)-isonicotinamide] | 3
3 | COc1ccc(-c2ncco2)cc1-c1ccc(NC(=O)c2c(F)cccc2F)cc1 [Compound 13, 2,6-Difluoro-N-(2′-methoxy-5′-oxazol-2-yl-biphenyl-4-yl)-benzamide] | 6
4 | Cc1ccc(-c2nccs2)cc1-c1ccc(NC(=O)c2c(F)cccc2F)cc1 [Compound 15, 2,6-Difluoro-N-(2′-methyl-5′-thiazol-2-yl-biphenyl-4-yl)-benzamide] | 2
5 | Cc1cnccc1C(=O)Nc1ccc(-c2cc(-c3ncco3)ccc2Cl)cc1 [Compound 17, 3-Methyl-N-(2′-chloro-5′-oxazol-2-yl-biphenyl-4-yl)-isonicotin-amide, hydrochloride] | 7
6 | COc1ncc(Cl)cc1-c1ccc(NC(=O)c2ccncc2C)cc1 [Compound 18, 3-Methyl-N-[4-(5-chloro-2-methoxy-pyridin-3-yl)-phenyl]-isonicotinamide] | 9
7 | COc1ncc(Cl)cc1-c1ccc(NC(=O)c2ccncc2F)cc1 [Compound 19, 3-Fluoro-N-[4-(5-chloro-2-methoxy-pyridin-3-yl)-phenyl]-isonicotinamide] | 19
8 | Cc1cnccc1C(=O)Nc1ccc(-c2cc(-c3cccnc3)ccc2C)cc1 [Compound 20, 3-Methyl-N-[5′-(pyridin-3-yl)-2′-methyl-biphenyl-4-yl]-isonicotinamide] | 8
9 | Cc1ccc(-c2cccnc2)cc1-c1ccc(NC(=O)c2snnc2C)cc1 [Compound 21, 4-Methyl-[1,2,3]thiadazole-5-carboxylic acid [2′-methyl-5′-(pyridin-3-yl)-biphenyl-4-yl]-amide] | 6
10 | Cc1ccc(-c2cccnc2)cc1-c1ccc(NC(=O)c2c(F)cccc2F)cc1 [Compound 22, 2,6-Difluoro-N-[2′-methyl-5′-(pyridine-3-yl)-biphenyl-4-yl]-benzamide] | 1
11 | Cc1ccc(-c2ccccn2)cc1-c1ccc(NC(=O)c2c(F)cccc2F)cc1 [Compound 23, 2,6-Difluoro-N-[2′-methyl-5′-(pyridine-2-yl)-biphenyl-4-yl]-benzamide] | 5
12 | Cc1ccc(-c2ccccn2)cc1-c1ccc(NC(=O)c2snnc2C)cc1 [Compound 24, 4-Methyl-[1,2,3]thiadazole-5-carboxylic acid [2′-methyl-5′-(pyridin-2-yl)-biphenyl-4-yl]-amide] | 15
13 | COc1ccc(-c2cnco2)cc1-c1ccc(NC(=O)c2snnc2C)cc1 [Compound 25, 4-Methyl-[1,2,3]thiadiazole-5-carboxylic acid [2′-methoxy-5′-(oxazol-5-yl)-biphenyl-4-yl]-amide] | 3
14 | Cc1cnccc1C(=O)Nc1ccc(-c2cc(-c3cnco3)ccc2C)cc1 [Compound 26, 3-Methyl-N-[5′-(oxazol-5-yl)-2′-methyl-biphenyl-4-yl]-isonicotinamide] | 5
15 | COc1ccc(-c2cnco2)cc1-c1ccc(NC(=O)c2c(F)cccc2F)cc1 [Compound 27] | 4
16 | Cc1ccc(-c2nccs2)cc1-c1ccc(NC(=O)c2c(F)cncc2F)cc1 [Compound 28, 3,5-Difluoro-N-[5′-(thiazol-2-yl)-2′-methyl-biphenyl-4-yl]-isonicotinamide] | 7
17 | Cc1ccc(-c2ccncc2)cc1-c1ccc(NC(=O)c2c(F)cccc2F)cc1 [Compound 30, 2,6-Difluoro-N-[2′-methyl-5′-(pyridine-4-yl)-biphenyl-4-yl]-benzamide] | 3
18 | O=C(Nc1ccc(-c2cc(-c3ncco3)ccc2Cl)cc1)c1c(F)cccc1F [Compound 31] | 6
19 | Cc1cnccc1C(=O)Nc1ccc(-c2cc(-c3ccno3)ccc2C)cc1 [Compound 32, 3-Methyl-N-[5′-(isoxazol-5-yl)-2′-methyl-biphenyl-4-yl]-isonicotinamide] | 4

Row | Structure (SMILES) | IC50 [nM]
20 | Cc1ccc(-c2ccno2)cc1-c1ccc(NC(=O)c2snnc2C)cc1 [Compound 33, 4-Methyl-[1,2,3]thiadazole-5-carboxylic acid [2′-methyl-5′-(isoxazol-5-yl)-biphenyl-4-yl]-amide] | 4
21 | Cc1cc(-c2ccc(C)c(-c3ccc(NC(=O)c4c(F)cccc4F)cc3)c2)on1 [Compound 35, 2,6-Difluoro-N-[2′-methyl-5′-(3-methyl-isoxazole-5-yl)-biphenyl-4-yl]-benzamide] | 2
22 | Cc1cc(-c2ccc(C)c(-c3ccc(NC(=O)c4ccncc4C)cc3)c2)on1 [Compound 36, 3-Methyl-N-[5′-(3-methyl-isoxazol-5-yl)-2′-methyl-biphenyl-4-yl]-isonicotinamide] | 4
23 | Cc1cc(-c2ccc(C)c(-c3ccc(NC(=O)c4c(F)cccc4F)cc3)c2)[nH]n1 [Compound 37, 2,6-Difluoro-N-[2′-methyl-5′-(3-methyl-1H-pyrazol-5-yl)-biphenyl-4-yl]-benzamide] | 11
24 | Cc1csc(-c2ccc(C)c(-c3ccc(NC(=O)c4c(F)cccc4F)cc3)c2)n1 [Compound 38, 2,6-Difluoro-N-[2′-methyl-5′-(4-methyl-thiazol-2-yl)-biphenyl-4-yl]-benzamide] | 3
25 | Cc1ccc(-c2nc(C(F)(F)F)cs2)cc1-c1ccc(NC(=O)c2c(F)cccc2F)cc1 [Compound 39] | 13
26 | Cc1csc(-c2ccc(C)c(-c3ccc(NC(=O)c4ccncc4C)cc3)c2)n1 [Compound 40, 3-Methyl-N-[5′-(4-methyl-thiazol-2-yl)-2′-methyl-biphenyl-4-yl]-isonicotinamide] | 11
27 | Cc1ccc(-c2ccc[nH]2)cc1-c1ccc(NC(=O)c2c(F)cccc2F)cc1 [Compound 41, 2,6-Difluoro-N-[2′-methyl-5′-(1H-pyrrol-2-yl)-biphenyl-4-yl]-benzamide] | 18
28 | Cc1ccc(-c2noc(=O)[nH]2)cc1-c1ccc(NC(=O)c2c(F)cccc2F)cc1 [Compound 42, 2,6-Difluoro-N-[2′-methyl-5′-(5-oxo-4,5-dihydro-[1,2,4]-oxadiazol-3-yl)-biphenyl-4-yl]-benzamide] | > 1000
29 | Cc1ccc(N2CCOCC2)cc1-c1ccc(NC(=O)c2c(F)cccc2F)cc1 [Compound 43, 2,6-Difluoro-N-[2′-methyl-5′-(morpholino-4-yl)-biphenyl-4-yl]-benzamide] | 26
30 | Cc1cnccc1C(=O)Nc1ccc(-c2cc(-c3nnn[nH]3)ccc2C)cc1 [Compound 44, 3-Methyl-N-[2′-methyl-5′-(1H-tetrazol-5-yl)-biphenyl-4-yl]-isonicotinamide] | > 1000
31 | O=C(Nc1ccc(-c2cc(-c3ncco3)ccc2Cl)cc1)c1c(F)cncc1F [Compound 45, 3,5-Difluoro-N-[5′-(oxazol-2-yl)-2′-chloro-biphenyl-4-yl]-isonicotinamide] | 50
32 | COc1ccc(-c2ccco2)cc1-c1ccc(NC(=O)c2ccncc2C)cc1 [Compound 47, 3-Methyl-N-[2′-methoxy-5′-(furan-2-yl)-biphenyl-4-yl]-isonicotinamide] | 59
33 | Cc1cnccc1C(=O)Nc1ccc(-c2cc(-c3ncco3)ccc2N(C)C)cc1 [Compound 48, 3-Methyl-N-[5′-(oxazol-2-yl)-2′-(N,N-dimethylamino)-biphenyl-4-yl]-isonicotinamide] | 320
34 | Cc1cnccc1C(=O)Nc1ccc(-c2cc(-c3nnnn3C)ccc2C)cc1 [Compound 49, 3-Methyl-N-[2′-methyl-5′-(1-methyl-1H-tetrazol-5-yl)-biphenyl-4-yl]-isonicotinamide] | 12
35 | COc1ccc(-c2ncco2)cc1-c1ccc(NC(=O)c2ccncc2C)cc1 [Compound 50, 3-Methyl-N-[5′-(oxazol-2-yl)-2′-methoxy-biphenyl-4-yl]-isonicotinamide] | 23
36 | COc1ccc(-c2ncco2)cc1-c1ccc(NC(=O)c2c(F)cncc2F)cc1 [Compound 51, 3,5-Difluoro-N-[5′-(oxazol-2-yl)-2′-methoxy-biphenyl-4-yl]-isonicotinamide] | 11
37 | COc1ccc(-c2cccs2)cc1-c1ccc(NC(=O)c2ccncc2C)cc1 [Compound 52, 3-Methyl-N-[5′-(thien-2-yl)-2′-methoxy-biphenyl-4-yl]-isonicotinamide] | 35

same assay, conditions: Homo sapiens; Jurkat cells, PHA 2.5 μg/mL, 20 hours, IL-2 ELISA; read-out: IC50 (inhibition of IL-2 production)

Row | Structure (SMILES) | IC50 [nM]
38 | Cc1cnccc1C(=O)Nc1ccc(-c2cc(-c3ncco3)ccc2C)cc1 [Compound 7, 3-Methyl-N-(2′-methyl-5′-oxazol-2-yl-biphenyl-4-yl)-isonicotinamide, hydrochloride] | 8
39 | Cc1cnccc1C(=O)Nc1ccc(-c2cc(-c3cnco3)ccc2C)cc1 [Compound 29, 3-Methyl-N-[5′-(oxazol-5-yl)-2′-methyl-biphenyl-4-yl]-isonicotinamide, HCl salt] | 9
40 | Cc1cnccc1C(=O)Nc1ccc(-c2cc(-c3ccno3)ccc2C)cc1 [Compound 34, 3-Methyl-N-[5′-(isoxazol-5-yl)-2′-methyl-biphenyl-4-yl]-isonicotinamide, HCl salt] | 11

same assay, conditions: Jurkat cells, PHA 2.5 μg/mL, 20 hours, IL-2 ELISA; read-out: IC50 (inhibition of IL-2 production)

Row | Structure (SMILES) | IC50 [nM]
41 | Cc1cnccc1C(=O)Nc1ccc(-c2cc(-c3nccs3)ccc2C)cc1 [Compound 14, 3-Methyl-N-(2′-methyl-5′-thiazol-2-yl-biphenyl-4-yl)-isonicotin-amide] | 10

— patent US8592486B2, “Compounds for inflammation and immune-related uses” (Synta Pharmaceuticals Corp., priority 2005, dated 2013)
